{"source": "patent US20090305993A1", "about": "“METHODS AND COMPOSITION FOR THE TREATMENT OF GASTROINTESTINAL DISORDERS” (IRONWOOD PHARMACEUTICALS, INC., priority 2006, published 2009)", "key": {"[1]": {"test": "oral bioavailability in rats, LCMS", "assay_type": "in vivo, rat", "conditions": "plasma", "experimental": "Similarly, oral bioavailability was determined in rats using LCMS methodology. Rat plasma samples containing SEQ ID NO:3 and/or SEQ ID NO:6 were extracted using a Waters Oasis MAX 96 well solid phase extraction (SPE) plate. A 200 μL volume of rat plasma was mixed with 200 μL of ^13C9, ^15N—SEQ ID NO:3 in the well of a prepared SPE plate. The samples were drawn through the stationary phase with 15 mm Hg vacuum. All samples were rinsed with 200 μL of 2% ammonium hydroxide in water followed by 200 μL of 20% methanol in water. The samples were eluted with consecutive 100 μL volumes of […] formic acid/water/methanol and 100 μL 5/15/80 formic acid/water/methanol. The samples were dried under nitrogen and resuspended in 100 μL of 20% methanol in water. Samples were analyzed by a Waters Quattro Micro mass spectrometer coupled to a Waters 1525 binary pump with a Waters 2777 autosampler. A 40 μL volume of each sample was injected onto a Thermo Hypersil GOLD C18 column (2.1×50 mm, 5 um). SEQ ID NO:3 and SEQ ID NO:6 were eluted by a gradient over 3 minutes with acetonitrile and water containing 0.05% trifluoroacetic acid. The Quattro Micro mass spectrometer was run in multiple reaction monitoring (MRM) mode using the mass transitions of 764>182 and 682>136 for SEQ ID NO:3 and SEQ ID NO:6 respectively. Using this methodology, SEQ ID NO:3 was dosed orally and by IV to rats at 10 mg/kg. […] In this experiment, the limit of detection (LOD) for SEQ ID NO:6 was 0.78 nM. SEQ ID NO:6 was detected at all time points for the intravenous dose and was not detected beyond 240 min for the oral dose. For non-detected values, the LOD was used as an upper estimate of the concentration of SEQ ID NO:6. The calculated value for AUCp.o., (0-6h) was <1308 nM-min and AUCi.v.,(0-6h) was 1,590,000 nM-min. The 6 h bioavailability of SEQ ID NO:6 determined by circulating plasma levels was 0.08%"}, "carboxypeptidase A": {"target": "T1, carboxypeptidase A (Homo sapiens, UniProt P15085)", "T1 sequence (P15085 111-419)": "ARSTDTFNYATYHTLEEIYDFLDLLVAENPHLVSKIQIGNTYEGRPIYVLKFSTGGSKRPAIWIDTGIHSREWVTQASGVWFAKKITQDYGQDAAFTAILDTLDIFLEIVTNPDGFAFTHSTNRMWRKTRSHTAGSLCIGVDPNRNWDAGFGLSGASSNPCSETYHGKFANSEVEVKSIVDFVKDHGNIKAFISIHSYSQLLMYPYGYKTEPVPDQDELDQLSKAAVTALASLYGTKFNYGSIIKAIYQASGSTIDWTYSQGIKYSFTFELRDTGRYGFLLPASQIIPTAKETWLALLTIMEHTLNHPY", "test": "in vitro proteolytic stability, carboxypeptidase A", "experimental": "The stability of SEQ ID NO:3 in the presence of several mammalian digestive enzymes was determined. SEQ ID NO:3 was exposed to a variety of in vitro conditions including digestive enzymes and low ph environments designed to simulate gastric fluid. SEQ ID NO:3 was incubated with chymotrypsin, trypsin, pepsin, aminopeptidase, carboxypeptidase A, and simulated gastric fluid (sgf) at ph 1.0. Samples were collected at 0, 3, and 24 h for all conditions except pepsin digestion and the SGF. For the latter two conditions, samples were obtained at 0, 1, and 3 h. Negative control samples were prepared for initial and final time points. A separate, positive activity control was run in parallel to SEQ ID NO:3. All samples were analyzed by LC/MS\nFive (5) μL of a 40 μg/mL carboxypeptidase inhibitor (carboxypeptidase inhibitor from potato tuber (Sigma-Aldrich, C0279) stock was added to each control sample (0 and 24 h), for a final concentration of 0.4 μg/mL. All control and test (0, 3 and 24 h) samples were incubated at 37° C. for 5 min. Twenty (20) μL of a 0.01 mg/mL carboxypeptidase A (Carboxypeptidase A from human pancreas; Sigma-Aldrich, C5358) stock was added to each sample. The samples were returned to the 37° C. water bath. The reaction was quenched with 5 μL of a 40 μg/mL carboxypeptidase inhibitor at the proper time point. No extra carboxypeptidase inhibitor was added to the control samples since there was already inhibitor present. Samples were subsequently flash frozen in liquid nitrogen, and stored at −80° C. until analysis. Upon analysis, samples were thawed and transferred to a 1 mL 96-well deep microtiter plate. […] These standards were used to generate a standard curve for quantification of samples. When necessary, the standard curves were also used to calculate the concentration of the corresponding digestion product. Ten (10) μL injections were made of each sample and standard.\nTo further study the SEQ ID NO:3 carboxypeptidase A digestion product, samples of 0.01 mg/mL SEQ ID NO:3 were prepared in the carboxypeptidase A reaction buffer at a total volume of 500 μL in 2 mL eppendorf tubes. Triplicate samples were prepared for the following time points: 0, 15, 30, 60, 120, 180 and 240 min. The samples were incubated at 37° C. for 5 min. Twenty (20) μL of a 0.01 mg/mL carboxypeptidase A stock were added to each sample and returned to the 37° C. water bath. The reactions were quenched with 5 μL of a 40 μg/mL carboxypeptidase inhibitor at the proper time points. Samples were subsequently flash frozen in liquid nitrogen, and stored at −80° C. until analysis. Upon analysis, samples were thawed and transferred to a 1 mL 96-well plate. Standards of SEQ ID NO:3 were prepared in carboxypeptidase A reaction buffer at 0.625, 1.25, 2.50, 5.00, and 10.00 μg/mL concentrations. These standards were used to generate a standard curve for quantification of samples. When necessary, the standard curves were also used to calculate the concentration of the corresponding digestion product. Ten (10) μL injections were made of each sample and standard. If the formation of a digestion product was evident, then a spectral analysis was used to determine the mass of the digestion product, and predict its possible identity."}, "mice": {"test_system": "mice", "test": "murine gastrointestinal transit (GIT) assay, acute dosing", "assay_type": "in vivo, mouse", "conditions": "for gastrointestinal transit rate: oral, SEQ ID NO:4 0.1 mg/kg, Zelnorm 0.1 mg/kg, FIG. 3a, 3b; for intestinal transit rate versus dosage: recombinantly synthesized peptides, FIG. 4a", "experimental": "In order to determine whether the peptides increase the rate of gastrointestinal transit, the peptides and controls were tested using a murine gastrointestinal transit (GIT) assay (Moon et al. Infection and Immunity 25:127, 1979). In this assay, charcoal, which can be readily visualized in the gastrointestinal tract is administered to mice after the administration of a test compound. The distance traveled by the charcoal is measured and expressed as a percentage of the total length of the […].\nMice were fasted with free access to water for 12 to 16 hours before the treatment with peptide or control buffer. The peptides were orally administered at 1 μg/kg-1 mg/kg of peptide in buffer (20 mM Tris pH 7.5) 7 minutes before being given an oral dose of 5% Activated Carbon (Aldrich 242276-250G). Control mice were administered buffer only before being given a dose of Activated Carbon. After 15 minutes, the mice were sacrificed and their intestines from the stomach to the cecum were dissected. The total length of the intestine as well as the distance traveled from the stomach to the charcoal front was measured for each animal and the results are expressed as the percent of the total length of the intestine traveled by the charcoal front. All results are reported as the average of 10 mice±standard deviation. A comparison of the distance traveled by the charcoal between the mice treated with peptide versus the mice treated with vehicle alone was performed using a Student's t test and a statistically significant difference was considered for P<0.05. P-values are calculated using a two-sided T-Test assuming unequal variances."}, "CD1 female mice": {"test_system": "CD1 female mice", "test": "murine gastrointestinal transit assay, chronic dosing", "assay_type": "in vivo, mouse", "conditions": "oral, daily for 5 days; SEQ ID NO:3 0.06 or 0.25 mg/kg; FIG. 4c", "experimental": "The identical experiment was performed to determine if SEQ ID NO:3 is effective in a chronic dosing treatment regimen. Briefly, 8 week old CD1 female mice are dosed orally once a day for 5 days with either SEQ ID NO:3 (0.06 mg/kg or 0.25 mg/kg in 20 mM Tris pH 7.5) or vehicle alone (20 mM Tris pH 7.5). On the 5th day, a GIT assay is performed identical to that above except 200 μl of a 10% charcoal solution is administered. […] The results are shown side by side with acute dosing (1 day)."}, "suckling mice": {"test_system": "suckling mice", "test": "suckling mouse model of intestinal secretion (SuMi assay)", "assay_type": "in vivo", "experimental": "In this model a test compound is administered to suckling mice that are between 7 and 9 days old. After the mice are sacrificed, the gastrointestinal tract from the stomach to the cecum is dissected (“guts”). The remains (“carcass”) as well as the guts are weighed and the ratio of guts to carcass weight is calculated. If the ratio is above 0.09, one can conclude that the test compound increases intestinal secretion. […] The effect of Zelnorm® was also studied."}, "intestinal GC-C receptor": {"target": "T2, intestinal GC-C receptor (Homo sapiens, UniProt P25092)", "T2 construct": "monolayers of T84 cells in 24-well plates; host or cells: T84 human colon carcinoma cells", "T2 sequence (P25092 24-1073)": "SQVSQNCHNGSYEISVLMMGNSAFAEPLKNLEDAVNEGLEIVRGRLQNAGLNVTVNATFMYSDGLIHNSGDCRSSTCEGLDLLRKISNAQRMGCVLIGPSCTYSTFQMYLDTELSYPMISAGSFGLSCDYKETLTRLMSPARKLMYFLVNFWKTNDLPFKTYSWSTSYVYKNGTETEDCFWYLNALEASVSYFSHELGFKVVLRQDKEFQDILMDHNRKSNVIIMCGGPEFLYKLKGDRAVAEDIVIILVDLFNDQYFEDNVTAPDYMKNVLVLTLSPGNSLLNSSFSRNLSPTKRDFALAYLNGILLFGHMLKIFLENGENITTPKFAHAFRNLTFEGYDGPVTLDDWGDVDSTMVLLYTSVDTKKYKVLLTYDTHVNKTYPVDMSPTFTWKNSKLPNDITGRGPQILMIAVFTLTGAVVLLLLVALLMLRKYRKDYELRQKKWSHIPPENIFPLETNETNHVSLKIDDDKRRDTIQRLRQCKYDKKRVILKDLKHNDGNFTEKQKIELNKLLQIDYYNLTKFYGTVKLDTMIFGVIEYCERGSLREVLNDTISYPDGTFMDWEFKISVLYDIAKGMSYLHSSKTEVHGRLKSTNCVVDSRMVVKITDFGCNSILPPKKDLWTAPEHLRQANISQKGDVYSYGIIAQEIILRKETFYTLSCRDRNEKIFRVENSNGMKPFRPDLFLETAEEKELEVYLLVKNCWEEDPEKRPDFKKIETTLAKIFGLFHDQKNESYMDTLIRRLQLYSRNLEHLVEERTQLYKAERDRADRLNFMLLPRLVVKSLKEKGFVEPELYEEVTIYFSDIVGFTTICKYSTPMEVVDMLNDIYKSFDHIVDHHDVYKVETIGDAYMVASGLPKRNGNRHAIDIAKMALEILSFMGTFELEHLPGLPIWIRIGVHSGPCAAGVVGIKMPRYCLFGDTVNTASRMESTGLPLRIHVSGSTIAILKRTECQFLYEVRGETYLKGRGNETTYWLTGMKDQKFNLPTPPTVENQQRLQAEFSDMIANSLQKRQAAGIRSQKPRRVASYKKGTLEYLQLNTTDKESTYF", "test": "intestinal GC-C receptor activity assay (cyclic GMP EIA) in T84 cells", "assay_type": "cell-based", "conditions": "chemically synthesized peptides, FIGS. 2a and 2b", "experimental": "The ability of SEQ ID NO:5, SEQ ID NO:4, SEQ ID NO:3, and SEQ ID NO:6 to activate the intestinal GC-C receptor was assessed in an assay employing the T84 human colon carcinoma cell line (American Type Culture Collection (Bethesda, Md.)). For the assays cells were grown to confluency in 24-well culture plates with a 1:1 mixture of Ham's F12 medium and Dulbecco's modified Eagle's medium (DMEM), supplemented with 5% fetal calf serum and were used at between passages 54 and 60.\nBriefly, monolayers of T84 cells in 24-well plates were washed twice with 1 ml/well DMEM, then incubated at 37° C. for 10 min with 0.45 ml DMEM containing 1 mM isobutylmethylxanthine (IBMX), a cyclic nucleotide phosphodiesterase inhibitor. Test peptides (50 μl) were then added and incubated for 30 minutes at 37° C. The media was aspirated and the reaction was then terminated by the addition of ice cold 0.5 ml of 0.1N HCl. The samples were held on ice for 20 minutes and then evaporated to dryness using a heat gun or vacuum centrifugation."}, "[2]": {"target": "T3, GC-C receptors found in rat intestinal mucosa (Rattus norvegicus, UniProt P23897)", "T3 construct": "Epithelial cells from the small intestine of rats were obtained; from tissue; host or cells: rat small intestine mucosa / epithelial cell suspension", "T3 sequence (P23897 23-1072)": "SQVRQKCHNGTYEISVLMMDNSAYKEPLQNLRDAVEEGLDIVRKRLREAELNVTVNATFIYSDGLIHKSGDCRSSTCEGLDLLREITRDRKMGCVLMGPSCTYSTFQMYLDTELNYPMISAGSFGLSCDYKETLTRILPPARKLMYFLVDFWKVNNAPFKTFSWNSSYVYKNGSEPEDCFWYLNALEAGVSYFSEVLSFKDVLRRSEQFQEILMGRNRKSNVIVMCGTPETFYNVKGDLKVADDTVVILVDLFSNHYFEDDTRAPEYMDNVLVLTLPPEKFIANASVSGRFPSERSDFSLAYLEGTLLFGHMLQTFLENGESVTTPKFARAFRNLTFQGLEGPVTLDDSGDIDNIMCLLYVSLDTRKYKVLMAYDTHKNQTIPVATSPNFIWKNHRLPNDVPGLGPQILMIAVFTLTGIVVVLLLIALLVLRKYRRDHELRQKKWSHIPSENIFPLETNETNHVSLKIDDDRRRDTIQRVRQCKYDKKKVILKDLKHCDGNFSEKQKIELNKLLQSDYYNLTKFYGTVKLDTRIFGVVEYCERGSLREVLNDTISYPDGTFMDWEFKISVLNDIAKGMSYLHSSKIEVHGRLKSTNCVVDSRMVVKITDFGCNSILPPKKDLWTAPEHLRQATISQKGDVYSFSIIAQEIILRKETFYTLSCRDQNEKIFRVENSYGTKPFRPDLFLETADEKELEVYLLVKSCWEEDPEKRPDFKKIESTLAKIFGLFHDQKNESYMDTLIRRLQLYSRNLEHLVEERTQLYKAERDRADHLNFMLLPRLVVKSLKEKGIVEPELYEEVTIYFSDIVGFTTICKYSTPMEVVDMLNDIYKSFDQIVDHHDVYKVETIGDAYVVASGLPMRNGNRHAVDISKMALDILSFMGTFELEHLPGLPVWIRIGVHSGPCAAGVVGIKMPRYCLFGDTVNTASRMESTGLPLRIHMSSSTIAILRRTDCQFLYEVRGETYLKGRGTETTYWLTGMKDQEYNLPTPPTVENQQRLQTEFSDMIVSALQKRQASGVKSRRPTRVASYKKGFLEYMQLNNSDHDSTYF", "conditions": "same assay, observed by Giannella et al.; cited from earlier work"}, "mouse": {"test_system": "mouse", "test": "phenylbenzoquinone (PBQ)-induced writhing model", "conditions": "oral; SEQ ID NO:5 1 mg/kg, SEQ ID NO:3 2.5 mg/kg; versus vehicle control, FIGS. 8a, 8b"}, "[3]": {"conditions": "recombinant peptides, dose response, FIG. 6a"}}, "note": "Where a SMILES comes first, the peptide text is derived from it. Bridges are numbered along the chain shown (N, C = ends). Where no end group is shown, it is not given here."}
{"compound": "C[C@@H]1NC(=O)[C@@H]2CCCN2C(=O)[C@H](CC(N)=O)NC(=O)[C@@H]2CSSC[C@H](N)C(=O)N[C@H]3CSSC[C@H](NC1=O)C(=O)N[C@@H]([C@@H](C)O)C(=O)NCC(=O)N[C@H](C(=O)O)CSSC[C@H](NC(=O)[C@H](Cc1ccc(O)cc1)NC(=O)[C@H](CCC(=O)O)NC3=O)C(=O)N2", "note": "[SEQ ID NO:6] (H-CCEYCCNPACTGC-OH; disulfide 1-6, 2-10, 5-13)", "values": [{"measurement": "AUC, intravenous dose (AUCi.v.,(0-6h))", "setting": "[1]; 10 mg/kg IV", "result": "1,590,000 nM-min"}, {"measurement": "AUC, oral dose (AUCp.o.,(0-6h))", "setting": "[1]; 10 mg/kg oral", "result": "< 1308", "unit": "nM-min"}, {"measurement": "average concentration", "setting": "carboxypeptidase A; carboxypeptidase A digestion of SEQ ID NO:3, T0", "result": "108 (+/−2) nM"}, {"measurement": "average concentration", "setting": "carboxypeptidase A; carboxypeptidase A digestion of SEQ ID NO:3, T240 (240 min)", "result": "726 (+/−138) nM"}]}
{"compound": "[H]/N=C(/NCCCCC)N/N=C/c1c[nH]c2ccc(OC)cc12", "note": "[Zelnorm®, tegaserod, reference compound]", "values": [{"measurement": "gastrointestinal transit rate", "setting": "mice", "result": "increase gastrointestinal transit rate"}, {"measurement": "gastrointestinal motility upon chronic dosing", "setting": "CD1 female mice", "result": "effective"}, {"measurement": "intestinal secretion (ratio of guts to carcass weight)", "setting": "suckling mice; 0.2 mg/kg", "result": "does not increase intestinal secretion"}]}
{"compound": "NSSNYCCELCCNPACTGCY [SEQ ID NO:4]", "values": [{"measurement": "activity in GC-C receptor activity assay", "setting": "intestinal GC-C receptor", "result": "activity comparable to SEQ ID NO:4"}, {"measurement": "intestinal transit rates versus Tris buffer and Zelnorm", "setting": "mice; chemically synthesized peptides, FIG. 4b", "result": "increase intestinal transit rates more than either Tris buffer alone or an equivalent dose of Zelnorm®"}, {"measurement": "gastrointestinal transit rate", "setting": "mice", "result": "increase gastrointestinal transit rate"}, {"measurement": "intestinal transit rate versus dosage", "setting": "mice", "result": "increases with an increasing dosage"}, {"measurement": "intestinal secretion (ratio of guts to carcass weight)", "setting": "suckling mice; dose response, FIG. 5a, 5b", "result": "increase intestinal secretion"}, {"measurement": "intestinal secretion (ratio of guts to carcass weight)", "setting": "suckling mice; [3]", "result": "increase intestinal secretion"}, {"measurement": "Kd", "setting": "[2]", "result": "~13", "unit": "nM"}]}
{"compound": "NSSNYCCEYCCNPACTGCY (cysteine pairing not given here) [SEQ ID NO:5]", "values": [{"measurement": "intestinal transit rate versus dosage", "setting": "mice", "result": "increases with an increasing dosage"}, {"measurement": "intestinal secretion (ratio of guts to carcass weight)", "setting": "suckling mice; [3]", "result": "increase intestinal secretion"}, {"measurement": "writhings", "setting": "mouse", "result": "Significant reductions in writhings"}]}
